In PubChem BioAssay (NCI):
Several values for one entry are separate records, joined by “and”; a condition that tells them apart may be missing. Identical values can stand only once.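 48-hour exposure; five concentrations; linearly interpolated endpoints. At the GI50, growth is halved. TGI: total growth inhibition.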

Key:
Assay in all cases: NCI anticancer screen, dose series, 48 h
TK-10 renal = tested on: TK-10 renal
HT29 colon = tested on: HT29 colon
COLO 205 colon = tested on: COLO 205 colon
SF-295 CNS = tested on: SF-295 CNS
MDA-MB-231 breast = tested on: MDA-MB-231 breast
CCRF-CEM leukemia = tested on: CCRF-CEM leukemia
SR leukemia = tested on: SR leukemia
LOX IMVI melanoma = tested on: LOX IMVI melanoma
SK-MEL-2 melanoma = tested on: SK-MEL-2 melanoma
SF-539 CNS = tested on: SF-539 CNS
UACC-257 melanoma = tested on: UACC-257 melanoma
K-562 leukemia = tested on: K-562 leukemia
MCF7 breast = tested on: MCF7 breast

Compound | TGI (TK-10 renal) | TGI (HT29 colon) | TGI (COLO 205 colon) | TGI (SF-295 CNS) | TGI (MDA-MB-231 breast) | TGI (CCRF-CEM leukemia) [µM] | TGI (SR leukemia) | TGI (LOX IMVI melanoma) | TGI (SK-MEL-2 melanoma) | TGI (SF-539 CNS) | TGI (UACC-257 melanoma) | TGI (K-562 leukemia) | TGI (MCF7 breast) | GI50 (COLO 205 colon) | GI50 (SR leukemia) | GI50 (SF-539 CNS) | GI50 (UACC-257 melanoma) [µM] | GI50 (K-562 leukemia)
CCN(CC)CCC(=O)c1ccc(Oc2ccccc2)cc1 | 27.5 µM | 38.3 µM | 32.1 µM | > 100 µM | 36.7 µM | 51.3 | > 100 µM | 31.3 µM | > 100 µM | 34 µM | 33.5 µM | > 100 µM | 38.5 µM |  |  |  |  | 
CC1=NN(C(=O)c2ccccc2O)C(c2ccccc2Cl)C1C(=O)Nc1ccccc1 (configuration not stated) | > 100 µM | > 100 µM | > 100 µM | > 100 µM | > 100 µM | 0.245 | > 100 µM | > 36.5 µM | > 100 µM | 5.68 µM | > 100 µM | > 100 µM | > 100 µM |  |  |  |  | 
COC(=O)/C=C(/C(=O)OC)c1c(C)cc2c(C)cc(C)cc(C)c1-2 | > 83.3 µM | 28.3 µM | 22.4 µM | 29.3 µM | 15.3 µM | > 100 | > 100 µM | > 57.8 µM | > 77.1 µM | 26.7 µM | > 77.5 µM | > 100 µM | 36.6 µM |  |  |  |  | 
Cc1c(F)c(N)c2c(=O)cc(-c3ccc(NC(=O)[C@@H](N)CCCCN)c(F)c3)oc2c1F | 21.4 µM and 26.4 µM | 31 µM and 26.4 µM | 31.5 µM and 24.4 µM | 28.5 µM and 32.3 µM | 33.1 µM and 30.8 µM | 22.9 | 20.3 µM and 9.55 µM | 41.3 µM and 27.7 µM | 34.6 µM and 47.1 µM | 33.3 µM and 13.6 µM | 24.7 µM and 27.8 µM | 36.4 µM and 10.4 µM | 1.81 µM and 1.38 µM | 14.9 µM and 6.93 µM | 5.84 µM and 2.53 µM | 17.1 µM and 5.78 µM | 0.302 | 0.652 µM and 0.278 µM
CSC(=S)OC1C(CO[Si](C)(C)C(C)(C)C)OC2OC(C)(C)OC21 (configuration not stated) | 49 µM | 24.7 µM | 36.1 µM | 32.2 µM | 33.9 µM | 34 | 30.4 µM | 32 µM | 28.5 µM | 43.5 µM | 34.8 µM | 31 µM | 29.8 µM |  |  |  |  | 
O=Cc1ccc(-c2cccc([N+](=O)[O-])c2)s1 | > 100 µM | > 100 µM | > 100 µM | > 100 µM | > 100 µM | > 100 | > 100 µM | > 100 µM | > 100 µM | > 100 µM | > 100 µM | > 100 µM | > 100 µM |  |  |  |  | 
O=[N+]([O-])c1ccc(NC(=S)Nc2ccccn2)cc1 | > 93.2 µM | > 100 µM | > 94.5 µM | > 100 µM | > 100 µM | > 100 | > 100 µM | > 100 µM | > 100 µM | 55.5 µM | > 100 µM | > 100 µM | > 100 µM |  |  |  |  | 
CC(=O)OCC1OC(n2c(C)c(C(C)=O)c(-c3cccc4ccccc34)c(C#N)c2=S)C(OC(C)=O)C(OC(C)=O)C1OC(C)=O (configuration not stated) | > 100 µM | > 100 µM | > 100 µM | > 100 µM | > 100 µM | > 100 | > 100 µM | > 100 µM | > 100 µM | > 100 µM | > 100 µM | > 100 µM | > 100 µM |  |  |  |  | 
CN(C)c1ccc(N=Nc2cccc3ncccc23)cc1 | > 100 µM | > 100 µM | > 100 µM | > 100 µM | > 100 µM | > 100 | > 100 µM | > 100 µM | > 100 µM | > 100 µM | > 100 µM | > 100 µM | > 100 µM |  |  |  |  | 
